The source made the active and inactive calls. No cut-off for these calls is given here.
Experiments:
[1] = Cytotoxicity against human MIHA cells assessed as reduction in cell viability at 40 uM incubated for 48 hrs by MTT assay; assay type: cell-based
[2] = test system: MG-63; assay: Cytotoxicity against human MG-63 cells assessed as reduction in cell viability incubated for 48 hrs by MTT assay; assay type: functional, cell-based; details: MG-63, 48 h
[3] = Cytotoxicity against human MIHA cells assessed as reduction in cell viability incubated for 48 hrs by MTT assay; assay type: cell-based
[4] = test system: U2OS; assay: Cytotoxicity against human U2OS cells assessed as reduction in cell viability incubated for 48 hrs by MTT assay; assay type: functional, cell-based
[5] = target: Focal adhesion kinase 1 (Homo sapiens) (UniProt Q05397); assay: Inhibition of FAK phosphorylation in human U2OS cells at 5 to 20 uM incubated for 48 hrs by Western blot analysis; assay type: cell-based; details: dose 5-20 µM
Chain of Focal adhesion kinase 1 (Homo sapiens) (Q05397 2-1052 limits assumed): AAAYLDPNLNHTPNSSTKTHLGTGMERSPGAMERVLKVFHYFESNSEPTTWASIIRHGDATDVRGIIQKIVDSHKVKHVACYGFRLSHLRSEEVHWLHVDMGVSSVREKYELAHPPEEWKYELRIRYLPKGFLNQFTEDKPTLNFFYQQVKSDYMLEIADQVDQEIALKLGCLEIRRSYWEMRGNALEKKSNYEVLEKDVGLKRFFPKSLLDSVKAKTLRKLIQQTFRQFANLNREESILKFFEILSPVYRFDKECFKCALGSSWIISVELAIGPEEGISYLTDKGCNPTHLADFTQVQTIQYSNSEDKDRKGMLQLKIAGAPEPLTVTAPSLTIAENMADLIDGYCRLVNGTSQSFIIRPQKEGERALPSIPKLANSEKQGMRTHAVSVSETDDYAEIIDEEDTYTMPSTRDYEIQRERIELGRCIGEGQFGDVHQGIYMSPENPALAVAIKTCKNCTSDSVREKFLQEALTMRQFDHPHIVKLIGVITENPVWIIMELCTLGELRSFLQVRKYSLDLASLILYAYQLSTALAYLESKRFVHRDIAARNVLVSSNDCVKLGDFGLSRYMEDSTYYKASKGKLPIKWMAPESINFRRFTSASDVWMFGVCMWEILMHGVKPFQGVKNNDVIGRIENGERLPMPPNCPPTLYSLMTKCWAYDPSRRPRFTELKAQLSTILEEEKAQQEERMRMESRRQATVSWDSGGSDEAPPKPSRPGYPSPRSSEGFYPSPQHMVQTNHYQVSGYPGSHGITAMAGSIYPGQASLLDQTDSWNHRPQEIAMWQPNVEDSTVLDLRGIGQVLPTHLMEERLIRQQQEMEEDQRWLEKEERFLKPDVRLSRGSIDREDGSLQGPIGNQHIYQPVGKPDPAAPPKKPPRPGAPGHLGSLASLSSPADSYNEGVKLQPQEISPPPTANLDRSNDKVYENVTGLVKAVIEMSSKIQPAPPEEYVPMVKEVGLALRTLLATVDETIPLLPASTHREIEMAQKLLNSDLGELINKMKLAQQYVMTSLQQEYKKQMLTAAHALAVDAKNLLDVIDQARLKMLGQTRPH

[6] = target: Focal adhesion kinase 1 (Homo sapiens) (UniProt Q05397); assay: Inhibition of FAK phosphorylation in human MG-63 cells at 5 to 20 uM incubated for 48 hrs by Western blot analysis; assay type: cell-based; details: dose 5-20 µM

With `O=C(Nc1cccc2[nH]ccc12)c1cc(Cl)ccc1O` the Activity [1] was “Non-Toxic”.

For `O=C(Nc1cccc2c1cnn2C(=O)c1c(Cl)cccc1Cl)c1cc(Cl)ccc1O`, the Activity [1] was “Non-Toxic”.

For `COC(=O)CCn1cc2c(NC(=O)c3cc(Cl)ccc3O)cccc2n1`, the Activity [1] was “Non-Toxic”.

With `O=C(Nc1cccc2nn(CCO)cc12)c1cc(Cl)ccc1O` the Activity [1] was “Non-Toxic”.

With `CN(C)c1ccc(C(=O)n2ncc3c(NC(=O)c4cc(Cl)ccc4O)cccc32)cc1` the Activity [1] was “Non-Toxic”.

With `COC(=O)CCn1ncc2c(NC(=O)c3cc(Cl)ccc3O)cccc21` the Activity [1] was “Non-Toxic”.

For `O=C(Nc1cc(C(F)(F)F)cc(C(F)(F)F)c1)c1cc(Cl)ccc1O` [IMD-0354], the IC50 [2] was 48.7 µM, the IC50 [3] was greater than 100 µM and the Activity [1] was “Non-Toxic”. It also gave an IC50 [4] of 50.9 µM.

With `O=C(Nc1cccc2cn[nH]c12)c1cc(Cl)ccc1O` the Activity [1] was “Non-Toxic”.

With `CN(C)C(=O)Cn1ncc2c(NC(=O)c3cc(Cl)ccc3O)cccc21` the Activity [1] was “Non-Toxic”.

In the case of `O=C(Nc1ccc2[nH]ccc2c1)c1cc(Cl)ccc1O`, the Activity [1] is reported as “Non-Toxic”.

For `CN(C)C(=O)Cn1cc2c(NC(=O)c3cc(Cl)ccc3O)cccc2n1`, the Activity [1] was “Non-Toxic”.

In the case of `O=C(Nc1cccc2cc[nH]c12)c1cc(Cl)ccc1O`, the Activity [1] is reported as “Non-Toxic”.

For `O=C(O)CCn1ncc2c(NC(=O)c3cc(Cl)ccc3O)cccc21`, the Activity [1] was “Non-Toxic”.

In the case of `O=C(Nc1cccc2c1cnn2C(=O)N1CCOCC1)c1cc(Cl)ccc1O`, the Activity [1] is reported as “Non-Toxic”.

In the case of `O=C(Nc1cccc2c1cnn2CCO)c1cc(Cl)ccc1O`, the Activity [1] is reported as “Non-Toxic”.

In the case of `O=C(Nc1ccc2c(cnn2C(=O)c2ccccc2)c1)c1cc(Cl)ccc1O`, the inhibition [5] is reported as “Active” and the inhibition [6] is reported as “Active”.

With `O=C(O)CCn1cc2c(NC(=O)c3cc(Cl)ccc3O)cccc2n1` the Activity [1] was “Non-Toxic”.

In the case of `O=C(Nc1cccc2[nH]ncc12)c1cc(Cl)ccc1O`, the Activity [1] is reported as “Non-Toxic”.

In the case of `O=C(Nc1ccc2cn[nH]c2c1)c1cc(Cl)ccc1O`, the Activity [1] is reported as “Non-Toxic”.

With `CN(C)C(=O)n1ncc2c(NC(=O)c3cc(Cl)ccc3O)cccc21` the Activity [1] was “Non-Toxic”.

With `O=C(Nc1ccc2[nH]ncc2c1)c1cc(Cl)ccc1O` the Activity [1] was “Non-Toxic”.

With `COc1ccc(NC(=O)n2ncc3c(NC(=O)c4cc(Cl)ccc4O)cccc32)cc1` the Activity [1] was “Non-Toxic”.

— ChEMBL document CHEMBL4732176, “Synthesis and biological evaluation of novel N-substituted benzamides as anti-migration agents for treatment of osteosarcoma” (Eur J Med Chem, 2021)
